Experimental data taken from patent publication US8785600B2, “Anti-GCC antibody molecules and related compositions and methods” (Millennium Pharmaceuticals, Inc., priority 2009, dated 2014).

How the values were obtained:
[1] = tested on: GCC-expressing cells (T84 cells compared to MCF-7 cells; vector control cells); test: Internalization assay (immunofluorescence microscopy); assay type: cell-based, human; settings: 10 μg/ml, 37° C.
Protocol: Internalization of anti-GCC antibody molecules was tested in both GCC-expressing cells and vector control cells, using immunofluorescence microscopy. Cells were grown on coverslips and placed on ice for 10 minutes prior to incubation with 10 μg/ml antibody in cold culture medium for 20 minutes on ice. For internalization, antibody-containing medium was replaced with fresh culture medium and the cells were shifted to 37° C. for 2-3 hours or maintained on ice. After rinsing in PBS and a brief fixation in 4% paraformaldehyde at room temperature, cells were permeabilized for 15 min in 0/5% TRITON X-100. The localization of the test antibody was determined using a fluorescently labeled anti-IgG antibody by laser scanning confocal microscopy. Antibody molecules localized to the cell surface of GCC-expressing cells when on ice.
Most of the antibodies generated herein were tested in a number of the assays described above. (T84=human colon tumor cells, MCF7=human breast tumor cells, WB=western blot, IP=immunoprecipitation, IHC=immunohistochemistry; internalization used T84 cells compared to MCF-7 cells)

[2] = molecular target: T1, mouse GCC (Mus musculus, UniProt Q3UWA6); test: Cross-reactivity with GCC orthologs (ELISA); assay type: binding
T1 sequence (Q3UWA6 20-1072): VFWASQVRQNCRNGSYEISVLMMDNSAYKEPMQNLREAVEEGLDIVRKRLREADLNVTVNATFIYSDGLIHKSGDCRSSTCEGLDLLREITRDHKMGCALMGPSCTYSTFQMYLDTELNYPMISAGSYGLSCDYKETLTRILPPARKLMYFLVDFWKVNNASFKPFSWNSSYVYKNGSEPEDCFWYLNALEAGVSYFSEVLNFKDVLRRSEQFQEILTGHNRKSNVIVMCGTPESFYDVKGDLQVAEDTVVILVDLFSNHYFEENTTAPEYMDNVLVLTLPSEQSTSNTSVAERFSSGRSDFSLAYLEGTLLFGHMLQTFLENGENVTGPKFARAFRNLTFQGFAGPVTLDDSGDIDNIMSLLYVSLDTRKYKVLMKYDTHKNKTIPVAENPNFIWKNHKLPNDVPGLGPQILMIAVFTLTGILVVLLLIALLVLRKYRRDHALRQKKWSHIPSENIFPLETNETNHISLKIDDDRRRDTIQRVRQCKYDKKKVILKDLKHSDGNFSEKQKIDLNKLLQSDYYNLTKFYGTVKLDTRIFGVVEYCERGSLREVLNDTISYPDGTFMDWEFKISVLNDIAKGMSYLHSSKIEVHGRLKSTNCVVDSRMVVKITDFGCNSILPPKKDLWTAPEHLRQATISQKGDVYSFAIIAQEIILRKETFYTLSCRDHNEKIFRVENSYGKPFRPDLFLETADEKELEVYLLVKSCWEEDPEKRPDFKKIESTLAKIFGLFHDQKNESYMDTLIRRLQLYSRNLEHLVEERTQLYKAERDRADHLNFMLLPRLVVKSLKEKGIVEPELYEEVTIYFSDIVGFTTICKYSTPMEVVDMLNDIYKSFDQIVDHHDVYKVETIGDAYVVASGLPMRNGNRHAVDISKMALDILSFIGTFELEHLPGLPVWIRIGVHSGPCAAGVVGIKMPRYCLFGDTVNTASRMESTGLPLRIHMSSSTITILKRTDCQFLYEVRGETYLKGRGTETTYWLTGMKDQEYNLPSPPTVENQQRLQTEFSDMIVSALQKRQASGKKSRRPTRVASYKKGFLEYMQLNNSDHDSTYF
Source text: (§1) FIG. 4 depicts ELISA binding assays to test antibody cross-reactivity of GCC orthologs.

[3] = molecular target: T2, rat GCC (Rattus norvegicus, UniProt P23897); test: Cross-reactivity with GCC orthologs (ELISA); assay type: binding
T2 sequence (P23897 23-1072): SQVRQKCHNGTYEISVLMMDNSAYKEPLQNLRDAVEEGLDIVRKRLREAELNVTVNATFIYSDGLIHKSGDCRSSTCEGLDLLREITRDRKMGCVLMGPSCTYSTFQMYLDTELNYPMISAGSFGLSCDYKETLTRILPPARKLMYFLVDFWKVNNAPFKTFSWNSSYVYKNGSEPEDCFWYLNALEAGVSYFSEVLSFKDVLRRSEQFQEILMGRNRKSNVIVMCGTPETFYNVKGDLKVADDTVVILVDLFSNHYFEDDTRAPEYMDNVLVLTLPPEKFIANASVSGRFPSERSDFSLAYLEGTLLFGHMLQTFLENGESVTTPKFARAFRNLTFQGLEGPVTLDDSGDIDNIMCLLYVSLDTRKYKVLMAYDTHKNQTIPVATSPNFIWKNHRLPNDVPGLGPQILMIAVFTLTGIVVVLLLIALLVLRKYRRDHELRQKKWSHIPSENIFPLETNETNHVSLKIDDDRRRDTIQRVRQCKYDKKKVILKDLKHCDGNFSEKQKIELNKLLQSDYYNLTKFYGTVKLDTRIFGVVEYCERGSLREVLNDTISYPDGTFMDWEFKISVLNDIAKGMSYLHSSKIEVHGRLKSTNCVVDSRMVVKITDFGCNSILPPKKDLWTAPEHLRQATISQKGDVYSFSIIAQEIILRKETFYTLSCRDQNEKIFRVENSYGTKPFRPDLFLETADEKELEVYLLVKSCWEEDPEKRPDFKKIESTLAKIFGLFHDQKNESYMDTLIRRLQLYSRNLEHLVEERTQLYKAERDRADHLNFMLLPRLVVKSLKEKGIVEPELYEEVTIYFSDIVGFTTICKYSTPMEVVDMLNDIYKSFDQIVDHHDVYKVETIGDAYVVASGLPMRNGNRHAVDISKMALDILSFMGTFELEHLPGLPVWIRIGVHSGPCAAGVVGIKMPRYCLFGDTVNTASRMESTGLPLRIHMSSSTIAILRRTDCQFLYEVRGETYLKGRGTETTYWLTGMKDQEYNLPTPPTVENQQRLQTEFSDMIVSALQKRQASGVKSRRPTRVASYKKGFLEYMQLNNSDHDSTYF
Source text: as §1

[4] = tested on: CT26 hGCC/luc #32 cells; test: Pilot efficacy study with naked antibody in CT26 hGCC/luc #32 disseminated model; settings: for Lung weight, T test P vs. vehicle: end of study

5F9: Human anti-GCC mAb (IgG2, kappa) of hybridoma 5F9, ATCC PTA-8132; VH SEQ ID NO:18, VL SEQ ID NO:20; also engineered as IgG1
Internalization (localization of antibody by confocal microscopy) [1]: punctuate staining within the cell membrane, indicative of internalization | Binding to mouse GCC [2]: does not bind | Binding to rat GCC [3]: does not bind | Lung weight, T test P vs. vehicle ([4]; 10 mg/kg): < 0.01 | In vivo MRI of lungs ([4]; 40 mg/kg): normal lung presentation was seen without evidence of tumor | T/C (treatment/control) ([4]; 40 mg/kg and 10 mg/kg, 1×10^5 cells/mouse, day 34p.i, vs vehicle): 0.04 to 0.05 | Lung weight, T test P vs. vehicle ([4]; 40 mg/kg): < 0.05 | T/C compared to the 209 group ([4]; 1×10^5 cells/mouse, day 34p.i): 0.18 to 0.14 | Benefit in 5×10^5 groups ([4]; 5×10^5 cells/mouse): No benefit was seen
